Each structure is given as a SMILES string. Activity calls are given as the source filed them. The calls are words filed in the database; no cut-off is given here. Bounds are passed on as bounds.

The term Emax denotes the greatest response seen or fitted, relative to the assay's reference. As usually defined, the EC50 is the concentration that produces a half-maximal response.

Experiment [1] concerns the target T1, 5-hydroxytryptamine receptor 2A (Homo sapiens, UniProt P28223). The experiment in a line: Agonist activity at human 5HT2A receptor expressed in HEK293 cells at 10 uM assessed as calcium flux by FLIPR assay relative to serotonin. Format: functional, cell-based.
Experiment [2] deals with T1, 5-hydroxytryptamine receptor 2A. The experiment in a line: Agonist activity at human 5HT2A receptor expressed in HEK293 cells assessed as calcium flux by FLIPR assay. Format: functional, cell-based. In general terms: Calcium flux is commonly read through the fluorescence of an indicator in the cells.
Experiment [3] deals with T2, 5-hydroxytryptamine receptor 2B (Homo sapiens, UniProt P41595). The experiment in a line: Agonist activity at human 5HT2B receptor expressed in HEK293 cells assessed as calcium flux by FLIPR assay. The class given is functional, cell-based.
Experiment [4] deals with T2, 5-hydroxytryptamine receptor 2B. The experiment in a line: Agonist activity at human 5HT2B receptor expressed in HEK293 cells at 10 uM assessed as calcium flux by FLIPR assay relative to serotonin. Format: functional, cell-based.
Experiment [5] deals with T3, 5-hydroxytryptamine receptor 2C (Homo sapiens, UniProt P28335).
T3 sequence (P28335 whole entry): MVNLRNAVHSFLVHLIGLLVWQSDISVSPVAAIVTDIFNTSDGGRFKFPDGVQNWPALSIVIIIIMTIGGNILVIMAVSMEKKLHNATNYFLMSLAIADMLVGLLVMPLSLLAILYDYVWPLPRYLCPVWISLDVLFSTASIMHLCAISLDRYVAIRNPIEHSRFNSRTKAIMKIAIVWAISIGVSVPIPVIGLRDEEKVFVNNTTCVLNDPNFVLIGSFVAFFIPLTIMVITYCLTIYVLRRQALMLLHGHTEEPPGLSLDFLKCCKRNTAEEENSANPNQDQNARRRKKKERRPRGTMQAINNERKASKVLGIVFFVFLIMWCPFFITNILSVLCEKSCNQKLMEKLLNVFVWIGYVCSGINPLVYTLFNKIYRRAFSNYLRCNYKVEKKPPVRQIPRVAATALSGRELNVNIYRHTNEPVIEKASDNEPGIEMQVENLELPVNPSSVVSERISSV
Description: Agonist activity at human 5HT2C receptor expressed in HEK293 cells assessed as calcium flux by FLIPR assay. Format: functional, cell-based.

The target in experiment [6] is T4, 5-hydroxytryptamine receptor 2C (Homo sapiens) (UniProt P28335).
T4 sequence (whole entry): T3 sequence (P28335 whole entry)
Description: Agonist activity at human 5HT2C receptor expressed in HEK293 cells at 10 uM assessed as calcium flux by FLIPR assay relative to serotonin. Format: functional, cell-based.

Experiment [7] concerns the target Serotonin 2 receptors; 5-HT2a & 5-HT2c (Homo sapiens) (UniProt P28223+P28335). Description: Selectivity ratio of EC50 for human 5HT2A receptor to EC50 for human 5HT2C receptor.
Experiment [8] is filed under the species Homo sapiens. The experiment in a line: Selectivity ratio of EC50 for human 5HT2B receptor to EC50 for human 5HT2C receptor.

T1 sequence (P28223 whole entry): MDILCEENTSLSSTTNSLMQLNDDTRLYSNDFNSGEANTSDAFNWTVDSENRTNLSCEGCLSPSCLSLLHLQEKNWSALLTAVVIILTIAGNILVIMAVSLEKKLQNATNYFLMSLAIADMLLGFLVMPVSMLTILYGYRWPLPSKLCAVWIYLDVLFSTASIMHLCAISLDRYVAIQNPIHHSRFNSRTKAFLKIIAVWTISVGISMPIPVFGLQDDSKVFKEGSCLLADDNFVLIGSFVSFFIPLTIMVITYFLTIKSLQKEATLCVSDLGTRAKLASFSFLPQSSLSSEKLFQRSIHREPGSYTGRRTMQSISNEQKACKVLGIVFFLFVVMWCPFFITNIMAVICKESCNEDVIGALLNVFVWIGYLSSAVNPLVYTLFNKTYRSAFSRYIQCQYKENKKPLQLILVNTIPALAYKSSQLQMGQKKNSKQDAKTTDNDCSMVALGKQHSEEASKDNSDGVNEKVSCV
Sequence of Serotonin 2 receptors; 5-HT2a & 5-HT2c (Homo sapiens) (P28223 whole entry, looked up, one chain of several): as the sequence (P28223 whole entry) above
T2 sequence (P41595 whole entry): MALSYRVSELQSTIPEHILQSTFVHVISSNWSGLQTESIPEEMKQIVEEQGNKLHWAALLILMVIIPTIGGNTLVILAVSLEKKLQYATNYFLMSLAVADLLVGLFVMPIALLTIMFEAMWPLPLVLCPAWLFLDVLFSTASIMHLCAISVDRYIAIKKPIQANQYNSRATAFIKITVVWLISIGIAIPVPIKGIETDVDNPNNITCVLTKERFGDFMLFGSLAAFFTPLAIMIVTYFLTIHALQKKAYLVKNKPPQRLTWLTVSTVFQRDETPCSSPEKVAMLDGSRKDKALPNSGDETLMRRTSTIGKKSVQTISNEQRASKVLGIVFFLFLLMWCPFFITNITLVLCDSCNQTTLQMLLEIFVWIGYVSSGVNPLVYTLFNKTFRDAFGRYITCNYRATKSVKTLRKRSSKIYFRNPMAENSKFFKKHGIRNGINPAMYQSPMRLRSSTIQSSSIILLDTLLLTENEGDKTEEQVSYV

For `c1cc2c3c(c1)c1c(n3CCNC2)CCCC1`, the Emax in experiment [1] and in experiment [4] was less than 12% throughout. Further, the result in experiment [2] and in experiment [3] was inactive. Moreover, the concentration for a half-maximal effect (EC50) in experiment [5] worked out at 261 nM.
Turning to `NC[C@@H]1C[C@H]1c1ccccc1`, the EC50 in experiment [3] was 3090 nM; in experiment [5] it was 909 nM.
For `NC[C@H]1C[C@@H]1c1ccccc1`, the results for the maximum response (Emax) in experiment [1], in experiment [4] and in experiment [6] were 79%, 111% and 108%, respectively. Moreover, the EC50 in experiment [2] was 1400 nM; in experiment [3] it was 37 nM; in experiment [5], 5.2 nM. The Ratio EC50 stood at 268 in experiment [7] and 7.2 in experiment [8].
Regarding `NC[C@@H]1C[C@H]1c1ccccc1Br` [listing 1 of 2 here], the EC50 in experiment [3] is 224 nM; in experiment [5], 78 nM.
Take `NC[C@@H]1C[C@H]1c1ccccc1Br` [listing 2 of 2 here]: the maximal effect (Emax) in experiment [1] is less than 12%; in experiment [4] it was 96%; in experiment [6] it was 113%. Also, the outcome in experiment [2] was inactive. Also, the Ratio EC50 was greater than 128 in experiment [7] and 2.9 in experiment [8].
On to `c1ccc(CNC[C@H]2C[C@@H]2c2ccccc2)cc1` (racemic), for which the Emax was less than 12% in experiment [1], 10% in experiment [4] and 97% in experiment [6]. Besides, the result in experiment [2] and in experiment [3] was inactive.
With `N[C@@H]1C[C@H]1c1ccccc1.N[C@H]1C[C@@H]1c1ccccc1` (racemic) [TRANYLCYPROMINE], the results for the Emax in experiment [1], in experiment [4] and in experiment [6] were less than 12%, 29% and 109%, respectively. For the same compound, the result in experiment [2] was inactive. In addition, the figures for the EC50 in experiment [3] and in experiment [5] were greater than 5000 nM and 2700 nM, respectively.
On to `N#Cc1ccc(-c2cccc([C@H]3C[C@@H]3CN)c2)cc1` (relative stereo), for which the Emax in experiment [1] was less than 12%; in experiment [4], less than 12%; in experiment [6], 41%. For the same compound, the result in experiment [2] and in experiment [3] was inactive. For the same compound, the EC50 in experiment [5] is greater than 1000 nM.
For the compound `C#Cc1cccc([C@H]2C[C@@H]2CN)c1` (relative stereo), the maximum response (Emax) in experiment [1] was determined as 42%; in experiment [4] it was 84%; in experiment [6] it was 91%. The concentration giving a half-maximal response (EC50) is greater than 10000 nM in experiment [2], 185 nM in experiment [3] and 136 nM in experiment [5]. The Ratio EC50 in experiment [8] came to 1.4.
For the compound `NC[C@H]1C[C@@H]1c1cccc(-c2cc3ccccc3o2)c1` (relative stereo), the Emax in experiment [1] was less than 12%; in experiment [4] it was less than 12%; in experiment [6], 39%. The outcome in experiment [2] and in experiment [3] was inactive. Further, in experiment [5], the EC50 was greater than 1000 nM.
On to `CC(=O)Nc1cccc([C@H]2C[C@@H]2CN)c1` (relative stereo), for which the maximum response (Emax) is less than 12% in experiment [1], less than 12% in experiment [4] and 39% in experiment [6]. Besides, the outcome in experiment [2] and in experiment [3] was inactive. Also, the EC50 in experiment [5] was greater than 1000 nM.
`CC(=O)Nc1ccccc1[C@H]1C[C@@H]1CN` (relative stereo): the results for the Emax in experiment [1], in experiment [4] and in experiment [6] were less than 12%, less than 12% and 30%, respectively. The outcome in experiment [2] and in experiment [3] was inactive. Moreover, the EC50 in experiment [5] is greater than 1000 nM.
Regarding `NC[C@H]1C[C@@H]1c1cccc(C#CCCCCO)c1` (relative stereo), the figures for the Emax in experiment [1], in experiment [4] and in experiment [6] were less than 12%, 17% and 79%, respectively. For the same compound, the result in experiment [2] was inactive. Further, the concentration giving a half-maximal response (EC50) was found to be 1740 nM in experiment [3] and 332 nM in experiment [5]. Besides, the Ratio EC50 in experiment [7] was greater than 30; in experiment [8] it was greater than 1.
In the case of `NC[C@H]1C[C@@H]1c1ccc(-c2ccc(F)cc2)cc1` (relative stereo), the Emax is less than 12% in experiment [1], 10% in experiment [4] and 45% in experiment [6]. Moreover, the outcome in experiment [2] was inactive. The EC50 in experiment [3] and in experiment [5] was greater than 1000 nM in each case.
For the compound `NC[C@H]1C[C@@H]1c1ccc(-c2ccco2)cc1` (relative stereo), the Emax is less than 12% in experiment [1], less than 12% in experiment [4] and 75% in experiment [6]. The result in experiment [2] and in experiment [3] was inactive. The concentration giving a half-maximal response (EC50) in experiment [5] turned out to be 1200 nM.
Regarding `NC[C@H]1C[C@@H]1c1cccc(NC(=O)c2ccccc2)c1` (relative stereo), the Emax is less than 12% in experiment [1], less than 12% in experiment [4] and 26% in experiment [6]. Further, the outcome in experiment [2] and in experiment [3] was inactive. Further, the half-maximal effective concentration (EC50) in experiment [5] is greater than 1000 nM.
Turning to `CC(C)(O)C#Cc1cccc([C@H]2C[C@@H]2CN)c1` (relative stereo), the maximum response (Emax) in experiment [1] is less than 12%; in experiment [4], less than 12%; in experiment [6], 62%. For the same compound, the result in experiment [2] and in experiment [3] was inactive. Besides, the EC50 in experiment [5] was greater than 5000 nM.
Regarding `NC[C@H]1C[C@@H]1c1ccc(C#CCCCCO)cc1` (relative stereo), the maximal effect (Emax) in experiment [1] was less than 12%; in experiment [4], less than 12%; in experiment [6] it was 24%. Besides, the outcome in experiment [2] and in experiment [3] was inactive. For the same compound, the concentration giving a half-maximal response (EC50) in experiment [5] was greater than 10000 nM.
For the compound `NC[C@H]1C[C@@H]1c1ccccc1-c1ccc(F)cc1` (relative stereo), the Emax in experiment [1] was less than 12%; in experiment [4], 43%; in experiment [6], 74%. In experiment [2], the outcome was inactive. Further, the values for the concentration giving a half-maximal response (EC50) in experiment [3] and in experiment [5] were greater than 1000 nM and 301 nM, respectively. For the same compound, the Ratio EC50 in experiment [8] is greater than 3.
For `NC[C@H]1C[C@@H]1c1cccc(-c2ccc(F)cc2)c1` (relative stereo), the figures for the Emax in experiment [1], in experiment [4] and in experiment [6] were less than 12%, less than 12% and 79%, respectively. The result in experiment [2] and in experiment [3] was inactive. Also, the concentration for a half-maximal effect (EC50) in experiment [5] turned out to be 695 nM.
Regarding `NC[C@H]1C[C@@H]1c1ccccc1-c1cc2ccccc2o1` (relative stereo), the Emax in experiment [1] was less than 12%; in experiment [4], 10%; in experiment [6], 66%. Also, in experiment [2], the outcome was inactive. The half-maximal effective concentration (EC50) is greater than 1000 nM in experiment [3] and 1960 nM in experiment [5]. Also, the Ratio EC50 in experiment [8] is greater than 1.
Consider `NC[C@H]1C[C@@H]1c1ccccc1NC(=O)c1ccccc1` (relative stereo), for which the Emax in experiment [1] is less than 12%; in experiment [4], less than 12%; in experiment [6] it was 39%. The outcome in experiment [2] and in experiment [3] was inactive. For the same compound, the EC50 in experiment [5] was greater than 1000 nM.
Consider `NC[C@H]1C[C@@H]1c1ccccc1NC(=O)Nc1ccc(Cl)cc1` (relative stereo), for which the Emax was less than 12% in experiment [1], less than 12% in experiment [4] and 38% in experiment [6]. Moreover, the outcome in experiment [2] and in experiment [3] was inactive. Moreover, the EC50 in experiment [5] is greater than 1000 nM.
For the compound `NC[C@H]1C[C@@H]1c1cccc(NCc2ccccc2)c1` (relative stereo), the values for the Emax in experiment [1], in experiment [4] and in experiment [6] were less than 12%, less than 12% and 77%, respectively. The result in experiment [2] and in experiment [3] was inactive. The concentration giving a half-maximal response (EC50) in experiment [5] is 1180 nM.
For `NC[C@@H]1C[C@H]1c1ccccc1` (relative stereo), the EC50 came to 1400 nM in experiment [2], 85 nM in experiment [3] and 13 nM in experiment [5].
With `NC[C@H]1C[C@@H]1c1cccc(-c2ccc(C(F)(F)F)cc2)c1` (relative stereo), the Emax is less than 12% in experiment [1], less than 12% in experiment [4] and 61% in experiment [6]. Moreover, the outcome in experiment [2] and in experiment [3] was inactive. Further, the EC50 in experiment [5] was greater than 1000 nM.
As for `NC[C@H]1C[C@@H]1c1cccc(-c2ccc(Cl)cc2)c1` (relative stereo), the Emax is less than 12% in experiment [1], less than 12% in experiment [4] and 87% in experiment [6]. Also, the outcome in experiment [2] and in experiment [3] was inactive. In addition, in experiment [5], the EC50 amounted to 1580 nM.
As to `COc1ccc([C@H]2C[C@@H]2CN)cc1` (relative stereo), the figures for the Emax in experiment [1], in experiment [4] and in experiment [6] were less than 12%, less than 12% and 86%, respectively. The result in experiment [2] and in experiment [3] was inactive.

These data come from ChEMBL document CHEMBL1153382 (J Med Chem, 2009).
